{"source": "patent US12318393B2", "about": "“Modulators of orphan nuclear receptors for NASH and other metabolic disorders” (Emory University, priority 2018, dated 2025)", "type_in_all_cases": "in vivo", "key": {"[1]": {"tested_on": "C57BL/6 mice fed with high fat diet (HFD)", "experiment": "HFD-fed C57BL/6 mouse model of NASH, Compound 1 15 mg/kg", "description": "To determine the liver and muscle lipid content, muscle and liver tissues (40-80 mg) were homogenized in 0.5 ml of chloroform: Tris solution (v/v, 1:1), the homogenate was transferred to 1 ml of chloroform:methanol solution (v/v, 2:1) centrifuged at 3000 g (at −2° C.) for 10 min (Heraeus Megafuge 16R centrifuge). The organic phase was mixed with 5% Triton X100 in chloroform, dried and re-dissolved in water. After lipid extraction, triglyceride (TG) concentration in samples was measured with Triglyceride Quantification Kit (BioVision), according to the manufactures instructions. Plasma Free fatty acids and β-hydroxybutyrate were determined utilizing commercial colorimetric kits (BioVision) directly from plasma samples.\n(§1) Male C57BL/6J mice, 7 to 8 weeks old, were housed randomly in standard cages and were fed a HFD, or atherogenic diet (consisting 1% Chol and 0.5% cholic acid, see also Table 3). All mice had free access to water during the experimental period. During the feeding period body weight was monitored every 3 days. In the HFD experiment, after 4 or 6 weeks, the resultant obese mice were treated with antagomiR-122 ([…] once a week for 3 weeks), or i.p. injected with Compound 1 (RORα agonist, 7.5 mg/kg twice a week for 3 weeks; or 15 mg/kg 3 times a week for 3 weeks). The obese control (HFD) group was administered only saline with DMSO and antagomiR-control. After 3 weeks of treatment mice were sacrificed and livers were taken for RNA-seq analysis. Livers, white adipose, and skeletal muscle tissues were frozen in liquid nitrogen or in optimum cutting temperature embedded frozen blocks, for further RNA and histologic analysis. In the atherogenic diet experiment mice were treated with 15 mg/kg Compound 1 after 3 weeks with the diet. After 3.5 weeks of treatment, mice were sacrificed, and the livers were frozen in liquid nitrogen or in optimum cutting temperature embedded frozen blocks. Plasma was collected from atherogenic diet-fed mice and saved in −20° C. for ALT and AST analysis using the Reflotron® Analyzer and test-strips (Roche).\nExperimental design: C57BL/6 mice fed for 6 weeks with high fat diet (HFD) were injected with 15 mg/kg Compound 1 (or saline+DMSO) 3 times a week for 3 weeks (n=6).\nExperimental design: C57BL/6 mice fed for 6 weeks with HFD were injected with 15 mg/kg Compound 1 (or saline+DMSO) 3 times a week for 3 weeks (n=6)."}, "[2]": {"tested_on": "C57BL/6 mice fed with atherogenic diet", "experiment": "Atherogenic (fibrotic) diet mouse model: liver damage, inflammation, fibrosis", "description": "as §1\nLivers and adipose samples were placed in 4% buffered formaldehyde for 24 hours, followed by 80% ethanol and then embedded in paraffin blocks. Liver and adipose tissues were cut into […], deparaffinized with xylene and hydrated through graded ethanol. For the H&E staining, tissue sections were stained with hematoxylin (Emmonya Biotech Ltd.) and eosin (Leica, Surgipath). Liver macrophages were stained using rat anti-mouse F4/80 antigen (Serotec), followed by anti-Rat HRP (Histofine) and developed with a DAB kit (Zymed). Liver sections were stained for Masson Trichrome (Sigma). Liver CD3+ T cells were stained using Rat anti human-CD3-antibody (Bio-Rad), followed by anti-Rat HRP (Histofine) and developed with AEC (Invitrogen). α-SMA positive cells were stained using mouse anti-Human smooth Muscle Actin antibody (Dako), followed by anti-mouse HRP (Dako) and developed with DAB. The percentage area stained positively per high power field was calculated by ImageJ Software in 5-10 random fields.\nExperimental design: C57BL/6 mice fed for 3 weeks with atherogenic diet (to induce fibrosis) and injected with 15 mg/kg Compound 1 (or saline+DMSO) 3 times a week for 3.5 week (n=8).\nExperimental design: C57BL/6 mice fed for 3 weeks with atherogenic diet (to induce fibrosis) and injected with 15 mg/kg Compound 1 (or saline+DMSO) 3 times a week for 3.5 week (n=8). Representative microphotographs of H&E, CD3, and F4/80-stained livers taken from saline or Compound 1-treated mice are shown in FIG. 12A, where scale bars represent 10 μm. The graphs shown in FIG. 12B show quantification of positively-stained F4/80 areas using ImageJ."}, "[3]": {"tested_on": "C57BL/6 mice fed with HFD", "experiment": "Multi-parameter metabolic assessment (metabolic cages) in HFD-fed C57BL/6 mice", "settings": "15 mg/kg 3 times a week, after 2 weeks, 24 hr period, vs saline", "description": "Metabolic and activity profiles of the mice were measured, by using the Promethion High-Definition Behavioral Phenotyping System (Sable Instruments, Inc., Las Vegas, NV, USA), which is a multi-parameter assessment incorporating sub-systems for open-circuit indirect calorimetry, feeding, water intake, activity, running wheel and body mass measurements in a conventional live-in home cage that minimizes stress. Data acquisition and instrument control were performed using the MetaScreen software version 2.2.18.0, and the obtained raw data were processed using ExpeData version 1.8.4 using an analysis script detailing all aspects of data transformation. […] Respiratory gases were measured by using the GA-3 gas analyzer (Sable Systems Inc., Las Vegas, NV, USA) using a pull-mode, negative-pressure system. Air flow was measured and controlled by the FR-8 (Sable Systems Inc., Las Vegas, NV, USA), with a set flow rate of 2000 mL/min. Water vapor was continuously measured and its dilution effect on 02 and CO2 were mathematically compensated. Effective mass was calculated by ANCOVA analysis. Respiratory quotient (RQ) was calculated as the ratio of VCO2/VO2. Total energy expenditure (TEE) was calculated as VO2×(3.815+1.232×RQ), normalized to effective body mass, and expressed as kcal/h/kgeff.Mass. […]"}, "[4]": {"settings": "15 mg/kg 3 times a week for 3 weeks"}, "[5]": {"settings": "15 mg/kg 3 times a week for 3.5 weeks"}, "[6]": {"settings": "liver, 15 mg/kg 3 times a week for 3.5 weeks"}, "[7]": {"settings": "liver, 15 mg/kg 3 times a week for 3.5 weeks, vs untreated"}}, "data": [{"molecule": "O=C1Nc2cc(C(=O)N3CCC(Cc4ccccc4)CC3)ccc2Nc2ccccc21", "note": "[Compound 1]", "values": [{"measurement": "body weight at end of experiment", "setting": "[1]; [4]", "result": "significantly reduced"}, {"measurement": "decrease of (liver) triglyceride levels compared to untreated HFD mice", "setting": "[1]; [4]", "result": 5, "unit": "fold"}, {"measurement": "expression and secretion of miR-122 and precursors in plasma and liver", "setting": "[1]; [4]", "result": "induced"}, {"measurement": "hepatic lipid droplets", "setting": "[1]; [4]", "result": "reduced"}, {"measurement": "liver/body weight ratio, treated vs untreated group", "setting": "[1]; [4]", "result": "decrease"}, {"measurement": "expression of RORα-regulated genes FGF21 and Gpase6", "setting": "[1]; 15 mg/kg 3 times a week for 3 weeks, liver", "result": "significantly induced"}, {"measurement": "WAT inflammation", "setting": "[1]; mice with established NASH on HFD", "result": "reducing"}, {"measurement": "biomarkers of inflammation (Tgfb2 and TgfbR2) and fibrosis (Acta1, Col1A1 and Col3A1), liver mRNA", "setting": "[2]; [5]", "result": "reducing"}, {"measurement": "biomarkers of liver injury, AST and ALT (plasma)", "setting": "[2]; [5]", "result": "significantly improved"}, {"measurement": "mature miR-122 in tissue and in plasma", "setting": "[2]; [5]", "result": "increased"}, {"measurement": "liver vasculature (CD34 staining)", "setting": "[2]; data not shown", "result": "no effect"}, {"measurement": "T-cell density by CD3 staining", "setting": "[2]; [6]", "result": "decreased"}, {"measurement": "immune infiltrate by H&E staining", "setting": "[2]; [6]", "result": "decreased"}, {"measurement": "levels of myeloid infiltrate by F4/80 staining", "setting": "[2]; [6]", "result": "decreased"}, {"measurement": "reduction of fibrotic areas, Masson Trichrome (M.T)", "setting": "[2]; [7]", "result": 5, "unit": "fold"}, {"measurement": "reduction of fibrotic areas, α-SMA", "setting": "[2]; [7]", "result": 7, "unit": "fold"}, {"measurement": "fat oxidation", "setting": "[3]", "result": "increased"}, {"measurement": "total energy expenditure (TEE)", "setting": "[3]", "result": "increased"}]}]}
